Source: US20130197028A1, “nAChRalpha7 Agonists and nAChRalpha7 Antagonists for Treating Ulcerative Colitis (UC) and Crohn's Disease (CD)” (priority 2010, published 2013)
“Also recorded” adds a separate entry of the source. Read-outs that look alike come from different tables or passages of the source.

What was measured:
chronic DSS colitis = experiment: Chronic UC-like DSS colitis, therapeutic treatment; assay type: in vivo, mice; conditions: four DSS-water cycles, treatment from day 53, followed eleven days
Procedure: (§1) In an acute model, mice were treated with or without nAChRα7 agonist drug for five days. DSS were then given for seven days. Clinical activity scores were assessed. In a chronic model, mice were given DSS for seven days followed by seven days water. These DSS-water cycles were repeated three more times continuously. […] At this point, nAChRα7 agonist was given in one set of mice and all mice were followed for eleven days. […] The arrow indicates the start (day 53) of nAChRα7 agonist treatment in the chronic model;
Induction of chronic UC-like colitis was described in the legends of FIG. 6.

TNBS-induced colitis = assay type: in vivo, mice; conditions: for effect on CD-like colitis (overall statement): mouse IBD model, acute/chronic not specified; for disease activity (DAI), acute TNBS-colitis: mouse, in vivo
Excerpt: C57BL/6. Mice were pretreated either with PBS (control), or nicotine, PNU (α7 agonist), or MLA drug by peritoneal injection once daily for five days. Mice were then induced to develop colitis for seven days with either TNBS (in 50% ethanol) or 50% ethanol alone as a control. Disease activity of all mice was monitored daily.
(§2) For CD-like mouse model, BALB/c mice were used for the induction of DSS colitis. For CD-like mouse model, BALB/c mice were used for the induction of TNBS-colitis. C57/B6 or BALB/c mice, 6-8 weeks old, were pretreated (daily peritoneal injection) for one week with either nicotine (a non-specific ligand of nAChRα7; 6 mg/kg) or a nAChRα7-specific agonist (PNU; 8.3 mg/kg). Controls were mice without the pre-treatments (a total of >10 mice in each treatment group). The mice were then induced to develop either CD-like colitis with TNBS (600 μg) or UC-like colitis with DSS (2.5%).

DSS-induced colitis = assay type: in vivo, mice; conditions: for effect on UC-like colitis (overall statement): mouse IBD model, acute/chronic not specified
Procedure: as §1, §2

[1] = test system: chronic TNBS-induced colitis; assay type: in vivo, mice
[2] = at the dose used in the preclinical studies
Excerpt: (§3) Other studies of these nAChRα7-specific drugs, including toxicity and pharmacokinetics, are being investigated.

[3] = test system: TNBS-induced colitis of nAChRα7 deficient mice; conditions: mouse, in vivo
Procedure: (§4) Wild type (WT) nAChRα7 deficient (nAChRα7 knockout; α7KO) mice, both in C57B/6 background, were induced to develop colitis, either with DSS (A) or TNBS (B). […] N≧6 per group;
(§5) To exclude this possibility, nAChRα7 agonist and antagonist were tested on nAChRα7-knockout mice (nAChRα7-KO), in which development of chemically-induced colitis will not be affected by the agents if they are only specific to nAChRα7.

[4] = test system: DSS-induced colitis of nAChRα7 deficient mice; conditions: mouse, in vivo
Procedure: as §4, §5

[5] = test system: Gpx1/2-double knockout (DKO) mice ileocolitis; experiment: GPX 1/2 DKO colitis; assay type: in vivo; conditions: administered once signs of colitis were evident
Procedure: Clinical activity scores were assessed.
Once signs of colitis were immediately evident, both nAChRα7 agonists and nAChRα7 antagonists were administered to Gpx1/2-DKO mice.

[6] = test system: mouse behavior (immobility); conditions: DSS-induced colitis mice, IP agonist
Procedure: Tests were carried out on mice forced to swim in a cylindrical container for six minutes. Mice were divided into four groups: (a) control; (b) mice receiving IP agonist; (c) mice induced with DSS; and (d) mice receiving IP agonist and induced with DSS (n=6 in each group). The total duration of immobility in a container with 13 cm of water at 25° C. was scored. Immobility was defined when the mouse stopped struggling and remained floating motionless in the water, making only those movements necessary to keep its head above water. Day 0 and Day 7 indicate the days of DSS treatment.
as §3

[7] = test system: Immortalized (EBV-transformed) B lymphocytes of patients with UC, CD, and unaffected controls
Ulcerative colitis (UC) = conditions: human, in vivo; cited from earlier work
[8] = treatment of established chronic colitis

Structure (SMILES)	disease activity (clinical activity score), chronic DSS colitis (chronic DSS colitis)	effect on CD-like colitis (overall statement) (TNBS-induced colitis)	effect on UC-like colitis (overall statement) (DSS-induced colitis)	disease activity (DAI), acute DSS-colitis (DSS-induced colitis; mouse, in vivo)	disease activity (DAI), chronic TNBS-colitis [1, 8]	disease activity (DAI), acute TNBS-colitis (TNBS-induced colitis)	adverse effect on mice [2]	appearance of major organs (heart, kidney, liver, small and large intestines, spleen) [2]	therapeutic effect on TNBS-induced colitis in nAChRα7KO mice [3]	therapeutic effect on DSS-induced colitis in nAChRα7KO mice [4]	colitis clinical activity score, GPX 1/2 DKO mice [5]	immobility of DSS-mice in forced swim test [6]	potency compared with nicotine in preventing DSS-induced UC-like colitis (DSS-induced colitis; mouse, in vivo)	disease activity (DAI), chronic TNBS-colitis ([1]; mouse, in vivo)	anti-inflammatory cytokine IL-10 production [7]	cytokine/chemokine changes, agent by itself [7]	production of proinflammatory cytokine/chemokine IL-8 and MIP-1 [7]	clinical efficacy in UC (Ulcerative colitis (UC))
COc1ccc(/C=C2\CCCN=C2c2cccnc2)c(OC)c1 [GTS-21, 3-(2,4-dimethoxybenzylidene) anabaseine]	effectively reverse the disease course	worsened CD-like colitis	highly effective therapeutics for UC-like colitis	similarly effect of preventing development; also recorded: preventing DSS-induced colitis	–	–	–	–	–	–	–	–	–	–	–	–	–	–
CCN1C[C@]2(COC(=O)c3ccccc3N3C(=O)C[C@H](C)C3=O)CC[C@H](OC)[C@@]34[C@@H]5C[C@H]6[C@H](OC)[C@@H]5[C@](O)(C[C@@H]6OC)[C@@](O)([C@@H](OC)[C@H]23)[C@@H]14 [MLA, methyllycaconitine]	–	highly effective therapeutic agent for CD-like colitis	has no effect on UC-like colitis	–	highly therapeutic effect; also recorded: effectively reverses the disease course	efficiently prevent; also recorded: preventing acute TNBS-colitis; also recorded: essentially disappeared; also recorded: effectively prevent	–	–	–	–	–	–	–	–	–	–	–	–
O=C(N[C@H]1CN2CCC1CC2)c1ccc(Cl)cc1 [PNU, N-[(3R)-1-azabicyclo[2.2.2]oct-3-yl]-4-chlorobenzamide]	effectively reverse the disease course; also recorded: essentially eliminated the inflammation	worsened CD-like colitis	highly effective therapeutics for UC-like colitis	prevents DSS-induced UC-like colitis; also recorded: preventing DSS-induced colitis; also recorded: essentially eliminated the inflammation; also recorded: effectively prevent	no significant effect	greatly worsens; also recorded: worsens the disease; also recorded: either no therapeutic benefit, even worsening disease activity	no adverse effect	look normal by appearance	neither agonist (PNU) nor antagonist (MLA) was efficacious; also recorded: no effect at all	neither agonist (PNU) nor antagonist (MLA) was efficacious; also recorded: no effect at all	highly effective in treating colitis	completely reversed the immobility	slightly more potent	–	–	–	–	–
CN1CCCC1c1cccnc1 (stereo not drawn) [nicotine]	–	–	–	prevents the development; also recorded: prevents DSS-induced UC-like colitis; also recorded: effective in preventing UC-like DSS-colitis	–	–	–	–	–	–	–	–	–	no significant effect	significant inhibition	insignificant cytokine/chemokine changes	significant production	significant clinical efficacy
